From ChEMBL document CHEMBL5241104, “Reactive metabolites of the anticonvulsant drugs and approaches to minimize the adverse drug reaction” (Eur J Med Chem, 2021) come the findings set out here.

pIC50: −log10 of the molar value.

The test system of data set [1] is Rattus norvegicus. Put plainly: Anticonvulsant activity in Wistar rat assessed as protection against maximal electroshock induced seizure at po administration for 60 mins. The settings on record: 1 h. In kind it is functional. A general note: Protection in the maximal electroshock model is a classic sign of anticonvulsant action.
For data set [2], the system named is Rattus norvegicus. Description: Anticonvulsant activity against maximal electroshock induced seizure in Wistar rat assessed as reduction of time spent in extension phase at 50 mg/kg,po administration. In kind it is functional.
Data set [3] can be described thus: Protective index, ratio of TD50 for toxicity in Sc-PTZ induced Swiss albino mouse seizure model assessed as median neurotoxicity dose at po administration by rotorod test to ED50 for anticonvulsant activity in Swiss albino mouse assessed as protection against Sc-PTZ induced seizure at po administration. The class given is organism-based. The settings on record: in vivo, read-out: Ratio TD50/ED50. On the technique in general: The rotarod test checks motor coordination on a turning rod.

Data set [4] concerns Mus musculus. Put plainly: Anticonvulsant activity in Swiss albino mouse assessed as inhibition of maximal electroshock induced seizure at ip administration. The class given is functional.
The test system of data set [5] is Mus musculus. Put plainly: Anticonvulsant activity in mouse assessed as inhibition of maximal electroshock induced seizure at 200 mg/kg,po administration for 120 mins. In kind it is functional. The settings on record: 2 h.
A short description of data set [6]: Toxicity in Swiss albino mouse assessed as median toxicity dose at ip administration. In kind it is organism-based. Conditions: in vivo.
Data set [7] is filed under the species Rattus norvegicus. Put plainly: Inhibition of sodium uptake in rat cerebral cortical synaptosomes at 300 uM incubated for 30 mins by scintillation counting analysis. In kind it is functional. Conditions: Cerebral cortex, Synaptosome.
The species named for data set [8] is Rattus norvegicus. Description: Inhibition of sodium uptake in rat cerebral cortical synaptosomes at 30 uM incubated for 30 mins by scintillation counting analysis. The class given is functional. The settings on record: Cerebral cortex, Synaptosome.
Data set [9] can be described thus: Displacement of 3[H]BTX from rat cerebral cortical synaptosomes voltage-sensitive sodium channel incubated for 1.5 hrs by scintillation counting analysis. The class given is subcellular, Cerebral cortex, Synaptosome.
Data set [10] has as its system Rattus norvegicus. Put plainly: Anticonvulsant activity in Wistar rat assessed as protection against maximal electroshock induced seizure at po administration. In kind it is functional.
For data set [11], the species on record is Rattus norvegicus. Description: Inhibition of sodium uptake in rat cerebral cortical synaptosomes at 100 uM incubated for 30 mins by scintillation counting analysis. Conditions: Cerebral cortex, Synaptosome. In kind it is functional.
For data set [12], the system named is Rattus norvegicus. Put plainly: Anticonvulsant activity against maximal electroshock induced seizure in Wistar albino rat assessed as reduction of time spent in stupor phase at 10 mg/kg,ip administrated for 30 mins by electroconvulsive therapy. In kind it is functional. Also on record: scale not given: the % may be the effect or the level left. The settings on record: 0.5 h.

Data set [13] has as its system Rattus norvegicus. Description: Anticonvulsant activity against maximal electroshock induced seizure in Wistar albino rat assessed as reduction of time spent in clonus phase at 10 mg/kg,ip administrated for 30 mins by electroconvulsive therapy. The settings on record: 0.5 h. The class given is functional. Also on record: scale not given: the % may be the effect or the level left.

For data set [14], the system named is Rattus norvegicus. Description: Anticonvulsant activity against maximal electroshock induced seizure in Wistar albino rat assessed as reduction of time spent in flexion phase at 10 mg/kg,ip administrated for 30 mins by electroconvulsive therapy. The class given is functional. Also on record: scale not given: the % may be the effect or the level left. Conditions: 0.5 h.

The subject of data set [15] is Rattus norvegicus. Put plainly: Anticonvulsant activity against maximal electroshock induced seizure in Wistar albino rat assessed as reduction of time spent in extension phase at 10 mg/kg,ip administrated for 30 mins by electroconvulsive therapy. The class given is functional. Also on record: scale not given: the % may be the effect or the level left. The settings on record: 0.5 h.

The test system of data set [16] is Mus musculus. Description: Anticonvulsant activity in Albino mouse assessed as protection against maximal electroshock induced seizure at ip administration for 30 mins. In kind it is functional. Conditions: 0.5 h.
A short description of data set [17]: Toxicity in Swiss albino mouse assessed as lethality at 30 mg/kg,ip. The class given is organism-based. The settings on record: in vivo, read-out: Activity.
Data set [18] is described as follows: Protective index, ratio of TD50 for toxicity in Wistar rat assessed as median toxicity dose at po administration by rotorod test to ED50 for anticonvulsant activity in Wistar rat assessed as protection against maximal electroshock induced seizure at po administration. The class given is organism-based. Conditions: in vivo, read-out: Ratio TD50/ED50.
Data set [19] concerns Rattus norvegicus. Description: Anticonvulsant activity in Wistar rat assessed as protection against maximal electroshock induced seizure by measuring median effective dose at po administration. In kind it is functional.
Data set [20] has as its system Mus musculus. Description: Anticonvulsant activity in mouse assessed as protection against maximal electroshock induced seizure at ip administration for 5 mins. In kind it is functional.
Data set [21] in a line: Displacement of 3[H]BTX from rat brain membrane voltage-sensitive sodium channel incubated for 1.5 hrs by scintillation counting analysis. In kind it is cell membranes.
The nature of data set [22]: Toxicity in Swiss CD-1 mouse assessed as mortality at 100 mg/kg,ip. The class given is organism-based. Conditions: in vivo.

Turning to `COc1ccc(C2CC(c3ccc(Cl)cc3)=Nc3ccccc3N2)cc1` (centres undefined), in the data set with Rattus norvegicus [1], the Activity stood at 52%. Besides, the Time in the data set on Rattus norvegicus [2] was determined as 8.5 s.

As for `C=C(C)CC(CCC)C(=O)O` (racemic), in data set [3], the selectivity ratio was determined as 2.05. `COc1ccc(/C=C2/N=C(c3ccccc3)c3cc([N+](=O)[O-])ccc3NC2=O)cc1O`: in the data set on Mus musculus [4], the “inhibition (INH)” value is given as 70%. `CC1(C)O[C@@H]2O[C@@]3(COS(N)(=O)=O)OC(C)(C)OC3[C@@H]2O1` (some centres undefined): in the data set with Mus musculus [5], the inhibition in vivo at 200 mg/kg was no less than 80%. As for `CCCC(CCC)c1nnc(S)n1-c1ccccc1`, in [6], the TD50 is 371 mg/kg. Turning to `CC(=O)OC1Cc2ccccc2N(C(N)=O)c2ccccc21` (centres undefined), the inhibition came to 82.1% in the data set listed under Rattus norvegicus [7], 42.2% in the data set filed under Rattus norvegicus [8] and 61.8% in the data set listed under Rattus norvegicus [11]. This compound gave a pIC50 in data set [9] of 3.86. Moreover, in the data set with Rattus norvegicus [10], the Activity is reported as 54.4%. For `O=C1/C(=N\c2nnc(-c3cccc(Cl)c3Cl)c(/N=C3\C(=O)N(CN4CCOCC4)c4ccc(Cl)cc43)n2)c2cc(Cl)ccc2N1CN1CCOCC1`, the Activity in the data set with Rattus norvegicus [12] was 34.16%; in the data set with Rattus norvegicus [13], 40.55%; in the data set on Rattus norvegicus [14], 30.39%; in the data set on Rattus norvegicus [15], 48.95%. As for `O=C1Nc2ccc(Cl)cc2C(c2ccccc2)=NC1/N=N/c1ccc(F)cc1` (centres undefined), in the data set with Mus musculus [16], the Activity is 100%.

`COc1ccc(NC(=O)CN2C(=O)C3(Nc4ccccc4-c4nc(=O)c(C)nn43)c3ccccc32)cc1` (centres undefined): the mortality in data set [17] is 20%. As for `O=C1Nc2ccc(Cl)cc2C(c2ccccc2)=NC1/N=N/c1ccc(Cl)cc1` (centres undefined), the Activity in the data set with Mus musculus [16] is recorded as 100%.

As to `CC1(C)O[C@H]2CO[C@]3(COS(=O)(=O)N=[N+]=[N-])OC(C)(C)OC3[C@H]2O1` (some centres undefined), the inhibition in vivo at 200 mg/kg with Mus musculus [5] is no less than 80%. For `CC(=O)O[C@H]1Cc2ccccc2N(C(N)=O)c2ccccc21` [ESLICARBAZEPINE ACETATE], the selectivity ratio in data set [18] came to 76.3. Further, the inhibition in the data set listed under Rattus norvegicus [7] is 95.6%; in the data set filed under Rattus norvegicus [8] it was 52.6%; in the data set listed under Rattus norvegicus [11] it was 73.4%. The negative logarithm of the IC50 (pIC50) in [9] is 3.95. Further, the ED50 with Rattus norvegicus [19] stood at 4.7 mg/kg. Moreover, the Activity in the data set on Rattus norvegicus [10] worked out at 100%. As for `O=C1Nc2ccc(Br)cc2C12Nc1ccccc1-c1nc(=O)c(-c3ccccc3)nn12` (centres undefined), the mortality in data set [17] came to 30%. `CCCC(CCC)C(=O)N/N=C/c1cc(OC)ccc1OC`: the TD50 in data set [6] was 457 mg/kg. With `CN1C(=O)CN=C(c2ccccc2)c2cc(Cl)ccc21` [DIAZEPAM], in the data set with Mus musculus [20], the Activity was found to be 87.5%. `NC(=O)N1c2ccccc2CC([N+](=O)[O-])c2ccccc21` (centres undefined): in [21], the pIC50 is 2.64. For `CCOc1ccccc1N1CCN(CCCN2CCCC2=O)CC1`, in data set [22], the mortality was 25%. Still for that read-out and setting: the value for `COc1ccccc1N1CCN(CCCN2CCCC2=O)CC1` was 25%. As for `CCOc1cc(/C=C2/N=C(c3ccccc3)c3cc([N+](=O)[O-])ccc3NC2=O)ccc1O`, in the data set with Mus musculus [4], the “inhibition (INH)” value was determined as 75%. With `O=C(NC1CCCCC1)C(c1ccc(Cl)cc1)N1Cc2cnnn2-c2ccccc2C1=O` (centres undefined), in the data set with Mus musculus [20], the Activity amounted to 100%.

As usually defined, the inhibition in vivo is the relative decrease from the control value, in per cent. As usually defined, the TD50 is the dose at which the toxic effect under study appears in half of the subjects. Usually inhibition stands for the relative decrease from the control value, in per cent. What is called pIC50 is the negative decadic logarithm of the IC50, by convention in mol/L. Usually ED50 stands for the midpoint of the dose-response relation.
